Where two headings read alike, the source gives them in different places.

The target in assay [1] is T1, PLL4 (Photorhabdus laumondii subsp. laumondii, UniProt Q7N8I6). The experiment in a line: Glycan microarray screening (634 saccharide ligands). It counts as binding, Photorhabdus laumondii subsp. laumondii TT01. As to conditions: DyLight488-labelled PLL4, 200 μg/mL. On the procedure: Lectins were fluorescently labelled with DyLight 488 according to the manufacturer’s instructions and the unbound dye was extensively dialyzed out of the protein solution. The microarray chip (Semiotik LLC, Moscow, Russia, batch OSPS280715) containing 634 saccharide ligands, each in 6 replicates, was treated with PBS (137 mM NaCl, 2.7 mM KCl, 8 mM Na2HPO4, […], pH 7.4) with added 0.1% Tween-20 for 15 min. The labelled proteins (200 μg/mL) were then separately applied to the chip surface and incubated in a humidity chamber at 37 °C for 1 h. After the incubation, the unbound protein was washed out with PBS containing 0.05% Tween-20 and deionized water. The chip was dried by airflow and scanned using an InnoScan1100 AL (Innopsys, Carbonne, France) with a 488 nm laser. The data were analyzed with the software Mapix 8.2.2 and an online glycan chip converter (Semiotic, https://rakitko.shinyapps.io/semiotik).
T1 sequence (Q7N8I6 entry or part of it): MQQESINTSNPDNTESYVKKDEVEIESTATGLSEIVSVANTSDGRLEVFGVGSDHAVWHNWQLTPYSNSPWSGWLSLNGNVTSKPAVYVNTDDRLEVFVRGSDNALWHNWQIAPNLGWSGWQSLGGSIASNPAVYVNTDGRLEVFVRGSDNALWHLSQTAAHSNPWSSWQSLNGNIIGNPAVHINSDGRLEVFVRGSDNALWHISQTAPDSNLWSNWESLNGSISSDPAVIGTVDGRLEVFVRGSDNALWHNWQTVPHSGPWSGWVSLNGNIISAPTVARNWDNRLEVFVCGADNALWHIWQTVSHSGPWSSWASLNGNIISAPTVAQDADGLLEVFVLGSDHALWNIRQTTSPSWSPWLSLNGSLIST

The target of assay [2] is T2, PLL (Photorhabdus laumondii subsp. laumondii, UniProt Q7N8J0). The assay is described as follows: Isothermal titration calorimetry (ITC). Type of assay: binding, Photorhabdus laumondii subsp. laumondii TT01. Conditions: for KD: ITC. Here is the method:
(§1) ITC experiments were performed using an Auto-ITC200 calorimeter or Automated PEAQ-ITC calorimeter (both Malvern Panalytical, Malvern, UK). Measurements were carried out at 25 °C in the Tris buffer. Before the analyses, lectins were extensively dialyzed against the Tris buffer and the dialysate was used to dissolve ligands. The protein (0.1 mM or 0.2 mM) in the cell was titrated with 2 μL injections of the ligand (20 mM or 40 mM). […] Experiments for each interacting ligand were carried out in triplicates. Integrated heat effects were evaluated by nonlinear regression using a single-site binding model in Origin 7 (OriginLab, Northampton, USA) ([Wiseman et al. 1989]). Triplicate measurements were fitted simultaneously using a global fit approach. Due to the low affinity of the interaction, the binding stoichiometry was fixed during the fitting.
(In general: Isothermal titration calorimetry measures the heat released or taken up as one component is titrated into another.)

Assay [3] concerns the target T1, PLL4. The experiment in a line: Isothermal titration calorimetry (ITC). Conditions: for KD: ITC; for interaction with the sugar in ITC (in words): PLL4. Type of assay: binding, Photorhabdus laumondii subsp. laumondii TT01. Here is the method: as §1
Assay [4] deals with T3, PLL5 (Photorhabdus laumondii subsp. laumondii, UniProt Q7N8I5). The assay is described as follows: Isothermal titration calorimetry (ITC). Conditions: for KD: ITC; for interaction with the sugar in ITC (in words): PLL5. It counts as binding, Photorhabdus laumondii subsp. laumondii TT01. On the procedure: as §1
T3 sequence (Q7N8I5 entry or part of it): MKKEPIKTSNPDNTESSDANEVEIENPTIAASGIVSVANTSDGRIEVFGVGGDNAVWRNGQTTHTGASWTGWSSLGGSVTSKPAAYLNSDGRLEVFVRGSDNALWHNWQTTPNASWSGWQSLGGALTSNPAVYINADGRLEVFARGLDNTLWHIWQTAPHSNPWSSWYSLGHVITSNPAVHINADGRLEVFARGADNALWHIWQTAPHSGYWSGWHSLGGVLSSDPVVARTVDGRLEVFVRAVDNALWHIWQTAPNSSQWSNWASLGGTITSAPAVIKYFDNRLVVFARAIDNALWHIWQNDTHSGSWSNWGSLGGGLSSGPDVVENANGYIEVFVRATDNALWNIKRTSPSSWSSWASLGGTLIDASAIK
The target in assay [5] is PLL2. On the set-up: method as in Fujdiarová et al, 2021, Faltinek et al, 2019. As to conditions: ref Fujdiarová et al, 2021, Faltinek et al, 2019, cited from earlier work; for Kd: ITC; for interaction with the sugar in ITC (in words): PLL2.
For assay [6], the target named is PLL3. On the set-up: method as in Fujdiarová et al, 2021, Faltinek et al, 2019. Conditions: ref Fujdiarová et al, 2021, Faltinek et al, 2019, cited from earlier work; for Kd: ITC; for interaction with the sugar in ITC (in words): PLL3.
Assay [7] deals with PLL2. On the set-up: method as in Faltinek et al. 2019; Fujdiarová et al. 2021. As to conditions: inhibition of PLL2 binding to immobilized MGMR, ref Faltinek et al. 2019, Fujdiarová et al. 2021, cited from earlier work.
In assay [8] the test system is PLL3. Details: method as in Faltinek et al. 2019; Fujdiarová et al. 2021. Conditions: inhibition of PLL3 binding to immobilized MGMR, ref Faltinek et al. 2019, Fujdiarová et al. 2021, cited from earlier work.
Assay [9] has as its target T2, PLL. The assay is described as follows: SPR inhibition assay on the MGMR channel. On the set-up: species or system Photorhabdus laumondii subsp. laumondii TT01. Conditions: inhibition of PLL (250 nM) binding to immobilized MGMR. Here is the method: (§2) SPR experiments were carried out on BIAcore T200 or BIAcore S200 instruments (GE Healthcare, UK). Sugar moieties were immobilized on the chip surface using the standard procedures according to the manufacturer’s instructions. Measurements with immobilized MGMR were performed on the chip prepared previously (high-density chip) ([Fujdiarová et al. 2021]). Measurements with immobilized α-L-fucose were performed on the streptavidin chip (GE Healthcare, UK). Biotinylated α-L-fucose was immobilized on channel 2 to yield a final response of 29 RU, unmodified channel 1 was used as a control.
(§3) Measurements were performed in Tris buffer with the addition of 0.05% Tween 20 at a flow rate of 30 μl/min at 25 °C. […] 50 mM NaOH for 30 s (flow 30 μl/min) was used for chip regeneration. To determine KDs (app) towards MGMR, 2-fold dilution series of lectins was used (PLL: 0.048 – 50 μM, PLL4: 0.008 - 2 μM; PLL5: 1.9 – 500 nM). The data were evaluated with the BIAcore T200 or BIAcore S200 evaluation software using a steady state approach. To determine KD(app) towards α-L-fucose, 2-fold dilution series of lectins was used (PLL: 1.25 – 20 μM, PLL4: 0.39 – 12.5 μM; PLL5: 0.12 – 30 μM). The data were evaluated with the BIAcore T200 or BIAcore S200 evaluation software using a steady state approach (PLL5) or a single-cycle kinetics approach (PLL, PLL4). For SPR inhibition experiments on the MGMR channel, 250 nM PLL, 250 nM PLL4 or 62 nM PLL5, respectively, was used. Proteins of the given concentration were mixed with a concentration series of tested inhibitors (0.01 - 0.4 M). Proteins without an inhibitor were used as a control. The response of the lectin bound to the sugar surface at equilibrium was plotted against the concentration of inhibitor in order to determine IC50. The response in the appropriate blank channel was subtracted prior to all evaluations.

Assay [10] addresses T1, PLL4. The assay is described as follows: SPR inhibition assay on the MGMR channel. On the set-up: species or system Photorhabdus laumondii subsp. laumondii TT01. As to conditions: inhibition of PLL4 (250 nM) binding to immobilized MGMR. On the procedure:
as §2, §3

The target of assay [11] is T3, PLL5. The experiment in a line: SPR inhibition assay on the MGMR channel. On the set-up: species or system Photorhabdus laumondii subsp. laumondii TT01. As to conditions: inhibition of PLL5 (62 nM) binding to immobilized MGMR. Here is the method: as §2, §3
Where [12] appears, read: PLL4, stoichiometry N fixed to 2.
[13] abbreviates: PLL4, stoichiometry N fixed to 4.
The mark [14] stands for this setting: PLL4, stoichiometry N fixed to 6.
Where [15] appears, read: PLL4, stoichiometry N fixed to 8.
Setting [16] is: PLL5, stoichiometry N fixed to 2.
[17] abbreviates: PLL5, stoichiometry N fixed to 4.
Setting [18] is: PLL5, stoichiometry N fixed to 6.
[19] abbreviates: PLL5, stoichiometry N fixed to 8.
The mark [20] stands for this setting: PLL2, stoichiometry N fixed to 4.
Setting [21] is: PLL3, stoichiometry N fixed to 2.
[22] abbreviates: PLL3, stoichiometry N fixed to 4.
Setting [23] is: PLL3, stoichiometry N fixed to 6.
The mark [24] stands for this setting: PLL3, stoichiometry N fixed to 8.
The mark [25] stands for this setting: PLL2, stoichiometry N fixed to 8.

T2 sequence (Q7N8J0 entry or part of it): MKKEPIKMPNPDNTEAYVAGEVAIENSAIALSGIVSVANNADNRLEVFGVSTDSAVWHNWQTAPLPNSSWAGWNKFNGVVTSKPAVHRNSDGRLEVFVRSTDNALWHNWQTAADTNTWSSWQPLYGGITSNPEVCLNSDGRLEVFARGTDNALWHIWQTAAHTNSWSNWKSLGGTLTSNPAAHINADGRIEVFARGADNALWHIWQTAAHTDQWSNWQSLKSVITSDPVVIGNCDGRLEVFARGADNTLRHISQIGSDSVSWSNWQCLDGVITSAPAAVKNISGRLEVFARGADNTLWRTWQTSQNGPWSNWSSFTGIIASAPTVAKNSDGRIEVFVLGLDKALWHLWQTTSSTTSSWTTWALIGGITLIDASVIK

`CC(=O)N[C@@H]1[C@@H](O)[C@H](O[C@@H]2O[C@H](CO)[C@H](O)[C@H](O)[C@H]2O[C@@H]2O[C@H](C)[C@H](O)[C@H](O)[C@H]2O)[C@@H](CO)O[C@H]1O` [D-Fucβ1-2-D-Galβ1-4-D-GlcNAcβ]: the “glycan array binding (in words)” value in assay [1] is recorded as “recognized”.

On to `OC[C@H]1OC(O)[C@H](O)[C@@H](O)[C@@H]1O` (stereo partly drawn) [D-Glc], for which the “interaction with the sugar in ITC (in words)” value (“interaction with the sugar” below) was “did not bind these sugars significantly” in assay [2]; “did not bind these sugars significantly” in [3]; “did not bind these sugars significantly” in assay [4]; “interacted” in [5]; “interacted” in assay [6]. Also, the KD result in assay [2] (stoichiometry N fixed to 2), in assay [2] (stoichiometry N fixed to 4), in assay [2] (stoichiometry N fixed to 6), in assay [2] (stoichiometry N fixed to 8), in assay [3] (setting [12]) and in [3] (setting [13]) was “No int” each time. Further, the KD result in [3] (setting [14]), in assay [3] (setting [15]), in assay [4] (setting [16]), in [4] (setting [17]), in assay [4] (setting [18]) and in [4] (setting [19]) was “No int” throughout. The Kd in [5] (setting [20]) was 3.6 ± 0.21 mM; in [6] (setting [21]), 4 ± 0.12 mM; in [6] (setting [22]), 3.6 ± 0.08 mM; in assay [6] (setting [23]) it was 3.3 ± 0.07 mM; in assay [6] (setting [24]), 3.1 ± 0.11 mM.

As to `O=C[C@H](O)[C@@H](O)[C@@H](O)[C@H](O)CO` [D-Gal, D-galactose], the “interaction with the sugar” value in [2] was “did not bind these sugars significantly”; in assay [3], “did not bind these sugars significantly”; in assay [4], “did not bind these sugars significantly”; in [5] it was “interacted”; in [6], “interacted”. The KD result in assay [2] (stoichiometry N fixed to 2), in [2] (stoichiometry N fixed to 4), in assay [2] (stoichiometry N fixed to 6), in assay [2] (stoichiometry N fixed to 8), in assay [3] (setting [12]) and in assay [3] (setting [13]) was “No int” in each case. Further, the KD entry in [3] (setting [14]), in assay [3] (setting [15]), in [4] (setting [16]), in assay [4] (setting [17]), in assay [4] (setting [18]) and in [4] (setting [19]) was “No int” in each case. In addition, the IC50 result was “not PLL2” in assay [7], above 100 mM in [7] (read-out: IC50) and “inhibited only the binding of PLL3” in assay [8]. In addition, the Kd was 0.5 ± 0.02 mM in assay [5] (PLL2, stoichiometry N fixed to 2); 0.4 ± 0.03 mM in assay [5] (setting [20]); 0.3 ± 0.04 mM in [5] (PLL2, stoichiometry N fixed to 6); 0.3 ± 0.06 mM in assay [5] (setting [25]); 3 ± 0.06 mM in assay [6] (setting [21]); 2.7 ± 0.14 mM in [6] (setting [22]). In addition, the Kd is 2.5 ± 0.13 mM in [6] (setting [23]) and 2.2 ± 0.06 mM in assay [6] (setting [24]).

`OC[C@H]1O[C@@H](O[C@H]2[C@H](O)[C@@H](O)C(O)O[C@@H]2CO)[C@H](O)[C@@H](O)[C@H]1O` (mixture of isomers) [lactose]: the “glycan array binding (in words)” value in [1] was “recognized”.

On to `CO[C@@H]([C@H](O)[C@H](O)CO)[C@@H](O)C=O` [3OMG, 3-O-methyl-D-glucose], for which the IC50 was 48.1 ± 14.9 mM in [9]; 13.1 ± 0.84 mM in assay [10]; 16.9 ± 2.69 mM in assay [11]; 5.2 ± 0.91 mM in assay [7] (read-out: IC50); 26.4 ± 2.84 mM in assay [8] (read-out: IC50). The “interaction with the sugar” value in assay [2] is listed as “did not bind these sugars significantly”; in assay [3] it was “did not bind these sugars significantly”; in [4] it was “did not bind these sugars significantly”; in [5], “interacted”; in assay [6], “interacted”. For the same compound, the KD result in [2] (stoichiometry N fixed to 2), in assay [2] (stoichiometry N fixed to 4), in assay [2] (stoichiometry N fixed to 6), in assay [2] (stoichiometry N fixed to 8), in [3] (setting [12]) and in assay [3] (setting [13]) was “No int” each time. Also, the KD entry in assay [3] (setting [14]), in [3] (setting [15]), in assay [4] (setting [16]), in assay [4] (setting [17]), in assay [4] (setting [18]) and in [4] (setting [19]) was “No int” throughout. In addition, the Kd is 11.2 ± 0.8 mM in assay [5] (setting [25]); 11.5 ± 1.55 mM in assay [6] (setting [21]); 11.1 ± 1.5 mM in [6] (setting [22]); 10.7 ± 1.5 mM in [6] (setting [23]); 10.2 ± 0.62 mM in assay [6] (setting [24]).

The Kd is the constant that tells how readily two partners part at equilibrium. By IC50 is commonly meant the midpoint of a concentration-inhibition curve.

The record behind these values is paper PMC12203525, “The insight into the biology of five homologous lectins produced by the entomopathogenic bacterium and nematode symbiont Photorhabdus laumondii” (Glycobiology, 2025).
